Results from patent US8507251B2, “Medium and method for culturing Mycobacterium avium subspecies paratuberculosis” (priority 2009, dated 2013).
“And” between values parts separate entries of the source, which are not always exact repeats. Identical values can stand only once.

Legend:
[1] = test system: MAP strain Dominic (ATCC 43545); experiment: radiometric 14CO2 BACTEC 460 growth culture, MAP Dominic; format: cell-based, Mycobacterium avium subspecies paratuberculosis
MAP strain UCF-4 = experiment: radiometric 14CO2 BACTEC 460 growth culture, MAP UCF-4; format: cell-based, Mycobacterium avium subspecies paratuberculosis
MAP ATCC 19698 = experiment: radiometric 14CO2 BACTEC 460 growth culture, MAP 19698; format: cell-based, Mycobacterium avium subspecies paratuberculosis
MAP 303 = experiment: radiometric 14CO2 BACTEC 460 growth culture, MAP 303; format: cell-based, Mycobacterium avium subspecies paratuberculosis
M. avium ATCC 25291 = experiment: radiometric 14CO2 BACTEC 460 growth culture, M. avium 25291; format: cell-based, M. avium subspecies avium
M. avium 101 = experiment: radiometric 14CO2 BACTEC 460 growth culture, M. avium 101; format: cell-based, M. avium subspecies avium
[2] = test system: eight mycobacterial strains
single MAP strain = settings: cited from earlier work
[3] = test system: M. tuberculosis, M. Kansasii, M. scrofulaceum, M. avium and M. intracellulare; settings: 5 mg/ml; cited from earlier work
[4] = test system: bacteria (including M. phlei) and fungal growth; settings: 100-250 μg/ml; cited from earlier work
[5] = test system: Bacillus Callmette Guerin (BCG) M. bovis Karlson & Lessel (ATCC 19015); format: cell-based
M. avium = format: cell-based, M. avium subspecies avium; settings: 4 μg/ml; value is a decrease
[6] = test system: avirulent M. tb strain ATCC 25177; format: cell-based, M. tuberculosis
[7] = 1 μg/ml, first of the two values (two experiments)
[8] = 1 μg/ml, second of the two values (two experiments)
[9] = 4 μg/ml, first of the two values (two experiments)
[10] = 4 μg/ml, second of the two values (two experiments)
[11] = 16 μg/ml, first of the two values (two experiments)
[12] = 16 μg/ml, second of the two values (two experiments)
[13] = 64 μg/ml, first of the two values (two experiments)
[14] = 64 μg/ml, second of the two values (two experiments)

Q: Which results are given for `CN1CCCC1c1cccnc1` (centres unmarked) [Nicotine, nicotine, reference compound]?
A: percent change from control cGI (% ΔcGI / % −ΔcGI) [1, 7]: −2%; percent change from control cGI (% ΔcGI / % −ΔcGI) [1, 8]: 0%; percent change from control cGI (% ΔcGI / % −ΔcGI) [1, 9]: 29%; percent change from control cGI (% ΔcGI / % −ΔcGI) [1, 10]: 30%; percent change from control cGI (% ΔcGI / % −ΔcGI) [1, 11]: 1%; percent change from control cGI (% ΔcGI / % −ΔcGI) [1, 12]: 6%; percent change from control cGI (% ΔcGI / % −ΔcGI) [1, 13]: −12%; percent change from control cGI (% ΔcGI / % −ΔcGI) [1, 14]: 7%; percent change from control cGI (% ΔcGI / % −ΔcGI) (MAP strain UCF-4; 1 μg/ml): −10%; percent change from control cGI (% ΔcGI / % −ΔcGI) (MAP strain UCF-4; 4 μg/ml): −10%; percent change from control cGI (% ΔcGI / % −ΔcGI) (MAP strain UCF-4; 16 μg/ml): −6%; percent change from control cGI (% ΔcGI / % −ΔcGI) (MAP strain UCF-4; 64 μg/ml): 9%; percent change from control cGI (% ΔcGI / % −ΔcGI) (MAP ATCC 19698; 1 μg/ml): −20%; percent change from control cGI (% ΔcGI / % −ΔcGI) (MAP ATCC 19698; 4 μg/ml): −20%; percent change from control cGI (% ΔcGI / % −ΔcGI) (MAP ATCC 19698; 16 μg/ml): −21%; percent change from control cGI (% ΔcGI / % −ΔcGI) (MAP ATCC 19698; 64 μg/ml): −11%; percent change from control cGI (% ΔcGI / % −ΔcGI) (MAP 303; 1 μg/ml): 7%; percent change from control cGI (% ΔcGI / % −ΔcGI) (MAP 303; 4 μg/ml): 8%; percent change from control cGI (% ΔcGI / % −ΔcGI) (MAP 303; 16 μg/ml): −22%; percent change from control cGI (% ΔcGI / % −ΔcGI) (MAP 303; 64 μg/ml): 7%; percent change from control cGI (% ΔcGI / % −ΔcGI) (M. avium ATCC 25291; 1 μg/ml): 106%; percent change from control cGI (% ΔcGI / % −ΔcGI) (M. avium ATCC 25291; 4 μg/ml): 63%; percent change from control cGI (% ΔcGI / % −ΔcGI) (M. avium ATCC 25291; 16 μg/ml): 143%; percent change from control cGI (% ΔcGI / % −ΔcGI) (M. avium ATCC 25291; 64 μg/ml): 112%; percent change from control cGI (% ΔcGI / % −ΔcGI) (M. avium 101; 1 μg/ml): 55%; percent change from control cGI (% ΔcGI / % −ΔcGI) (M. avium 101; 4 μg/ml): 0%; percent change from control cGI (% ΔcGI / % −ΔcGI) (M. avium 101; 16 μg/ml): 15%; percent change from control cGI (% ΔcGI / % −ΔcGI) (M. avium 101; 64 μg/ml): 5%; effect on growth (in words) [2]: no effect on growth; effect on MAP growth (in words) (single MAP strain; 2 μg/ml, BACTEC 460 with OADC supplementation): Bactericidal inhibition; effect on MAP growth in culture (in words) (single MAP strain; solitary MAP strain, pure nicotine): inhibited MAP growth; effect on growth (in words) [3]: Enhanced growth; effect on growth (in words) [4]: inhibition

Q: Which “effect on growth (in words)” value [2] does the source give for `CN1CCCC1c1cccnc1` (racemic) [(±) nicotine, nicotine] here?
A: neither enhancement nor an inhibitory effect

Q: With `CN1CCCC1c1cccnc1` (single isomer, unassigned; (-)) [(−) nicotine, nicotine] as the compound, how does the “effect on growth (in words)” value [2] read?
A: neither enhancement nor an inhibitory effect

Q: For `Nc1ccc(C(=O)O)c(O)c1` [PAS, para-amino salicylic acid, reference compound], which “percent decrease from control cGI (%−ΔcGI)” value (shortened to “percent decrease … (%−ΔcGI)”) (MAP ATCC 19698; 64 μg/ml, value is a decrease) is on record?
A: 80%

Q: And the “percent decrease … (%−ΔcGI)” value (MAP 303; 64 μg/ml, value is a decrease)?
A: 80%

Q: And the “percent decrease … (%−ΔcGI)” value ([5]; 4 μg/ml)?
A: ≥ 94%

Q: What about the “percent decrease … (%−ΔcGI)” value (M. avium) of the same compound?
A: ≥ 94%

Q: For `NC(=O)c1ccc[n+]([C@H]2O[C@H](COP(=O)([O-])OP(=O)(O)OC[C@H]3O[C@@H](n4cnc5c(N)ncnc54)[C@H](O)[C@@H]3O)[C@@H](O)[C@H]2O)c1` [α-NAD, α-nicotinamide adenine dinucleotide], which “percent change from control cGI (% ΔcGI / % −ΔcGI)” value (shortened to “percent change … (% ΔcGI / % −ΔcGI)”) [1, 7] is on record?
A: 25%

Q: And the “percent change … (% ΔcGI / % −ΔcGI)” value [1, 8]?
A: −16%

Q: And the “percent change … (% ΔcGI / % −ΔcGI)” value [1, 9]?
A: 79%

Q: And the “percent change … (% ΔcGI / % −ΔcGI)” value [1, 10]?
A: 35%

Q: And the “percent change … (% ΔcGI / % −ΔcGI)” value [1, 11]?
A: 104%

Q: And the “percent change … (% ΔcGI / % −ΔcGI)” value [1, 12]?
A: 78%

Q: What about the “percent change … (% ΔcGI / % −ΔcGI)” value [1, 13] of the same compound?
A: 135%

Q: And the “percent change … (% ΔcGI / % −ΔcGI)” value [1, 14]?
A: 115%

Q: What about the “percent change … (% ΔcGI / % −ΔcGI)” value (MAP strain UCF-4; 1 μg/ml) of the same compound?
A: 18%

Q: And the “percent change … (% ΔcGI / % −ΔcGI)” value (MAP strain UCF-4; 4 μg/ml)?
A: 35%

Q: What about the “percent change … (% ΔcGI / % −ΔcGI)” value (MAP strain UCF-4; 16 μg/ml) of the same compound?
A: 65%

Q: What about the “percent change … (% ΔcGI / % −ΔcGI)” value (MAP strain UCF-4; 64 μg/ml) of the same compound?
A: 81%

Q: What about the “effect on growth (in words)” value (MAP ATCC 19698) of the same compound?
A: little or no effect

Q: And the “percent change … (% ΔcGI / % −ΔcGI)” value (MAP ATCC 19698; 1 μg/ml)?
A: −16%

Q: And the “percent change … (% ΔcGI / % −ΔcGI)” value (MAP ATCC 19698; 4 μg/ml)?
A: −6%

Q: What about the “percent change … (% ΔcGI / % −ΔcGI)” value (MAP ATCC 19698; 16 μg/ml) of the same compound?
A: −17%

Q: What about the “percent change … (% ΔcGI / % −ΔcGI)” value (MAP ATCC 19698; 64 μg/ml) of the same compound?
A: 13%

Q: What about the “effect on growth (in words)” value (MAP 303) of the same compound?
A: little or no effect

Q: And the “percent change … (% ΔcGI / % −ΔcGI)” value (MAP 303; 1 μg/ml)?
A: 8%

Q: What about the “percent change … (% ΔcGI / % −ΔcGI)” value (MAP 303; 4 μg/ml) of the same compound?
A: 9%

Q: And the “percent change … (% ΔcGI / % −ΔcGI)” value (MAP 303; 16 μg/ml)?
A: −8%

Q: What about the “percent change … (% ΔcGI / % −ΔcGI)” value (MAP 303; 64 μg/ml) of the same compound?
A: −18%

Q: What about the “percent change … (% ΔcGI / % −ΔcGI)” value (M. avium ATCC 25291; 1 μg/ml) of the same compound?
A: −2%

Q: And the “percent change … (% ΔcGI / % −ΔcGI)” value (M. avium ATCC 25291; 4 μg/ml)?
A: 160%

Q: What about the “percent change … (% ΔcGI / % −ΔcGI)” value (M. avium ATCC 25291; 16 μg/ml) of the same compound?
A: 131%

Q: What about the “percent change … (% ΔcGI / % −ΔcGI)” value (M. avium ATCC 25291; 64 μg/ml) of the same compound?
A: 147%

Q: What about the “effect on growth (in words)” value (M. avium 101) of the same compound?
A: little or no effect

Q: And the “percent change … (% ΔcGI / % −ΔcGI)” value (M. avium 101; 1 μg/ml)?
A: 39%

Q: What about the “percent change … (% ΔcGI / % −ΔcGI)” value (M. avium 101; 4 μg/ml) of the same compound?
A: −15%

Q: What about the “percent change … (% ΔcGI / % −ΔcGI)” value (M. avium 101; 16 μg/ml) of the same compound?
A: −21%

Q: And the “percent change … (% ΔcGI / % −ΔcGI)” value (M. avium 101; 64 μg/ml)?
A: −14%

Q: And the “effect on growth (in words)” value ([5]; at the doses tested)?
A: little or no effect

Q: And the “effect on growth (in words)” value [6]?
A: little or no effect

Q: And the “percent change … (% ΔcGI / % −ΔcGI)” value [6]?
A: 2% and −6% and −1% and 0%

Q: With `CN1CCCC1c1cccnc1` (single isomer, unassigned; (+)) [(+) nicotine, nicotine] as the compound, how does the “effect on growth (in words)” value [2] read?
A: neither enhancement nor an inhibitory effect
